Values quoted from earlier work, collected in patent publication US20170280761A1, “METHOD TO CONCENTRATE APOA-1 MIMETIC PEPTIDES TRANSGENICALLY EXPRESSED IN PLANTS” (The Regents of the University of California, priority 2014, published 2017).

Columns and labels:
[1] = test system: epithelial ovarian cancer cells
[2] = biological target: T1, scavenger receptor A (SR-A) (Homo sapiens, UniProt P21757)
T1 sequence (P21757 1-451): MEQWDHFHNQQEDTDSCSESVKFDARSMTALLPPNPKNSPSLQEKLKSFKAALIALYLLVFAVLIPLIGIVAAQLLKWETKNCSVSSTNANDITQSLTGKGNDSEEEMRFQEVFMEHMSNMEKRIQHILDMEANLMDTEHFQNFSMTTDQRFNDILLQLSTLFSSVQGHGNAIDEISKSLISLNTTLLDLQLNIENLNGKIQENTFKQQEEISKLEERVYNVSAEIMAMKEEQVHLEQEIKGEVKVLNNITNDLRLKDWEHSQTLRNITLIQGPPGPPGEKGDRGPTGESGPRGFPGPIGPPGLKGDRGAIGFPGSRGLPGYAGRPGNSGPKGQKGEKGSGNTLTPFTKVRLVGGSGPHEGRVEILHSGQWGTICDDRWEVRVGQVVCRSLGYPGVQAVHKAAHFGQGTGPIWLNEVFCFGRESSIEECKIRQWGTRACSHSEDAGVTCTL

tumor invasiveness = details: administration of the 4F peptide
ovarian cancer = details: for levels of lysophosphatidic acid (LPA) / tumor growth: administered either orally or by injection
[3] = test system: Hypoxia-inducible factor-1 (HIF-1); details: addition of the 4F peptide
C57BL/6J-Apc Min/+ mice = details: 4F in mouse chow
colon cancer = details: 4F added to mouse chow
[4] = mouse, in vivo

| Sequence | antioxidant enzyme manganese superoxide dismutase (MnSOD) [1] | proliferation and ability to form tumors [1] | inhibition of SR-A [2] | tumor invasiveness (tumor invasiveness) | levels of lysophosphatidic acid (LPA) (ovarian cancer) | tumor growth (ovarian cancer) | expression of HIF-1 alpha in mouse ovarian tumor tissues (ovarian cancer; administration of the 4F peptide) | HIF-1 alpha induced in vitro by LPA [3] | LPA levels (C57BL/6J-Apc Min/+ mice) | number and size of tumors in the intestinal tract (C57BL/6J-Apc Min/+ mice) | plasma LPA levels (colon cancer) | tumor angiogenesis (colon cancer) | tumor burden (colon cancer) | amount of intact 6F peptide found in the small intestine [4] | intact 6F peptide in the plasma [4] | intact 6F peptide in the small intestine [4] |
| --- | --- | --- | --- | --- | --- | --- | --- | --- | --- | --- | --- | --- | --- | --- | --- | --- |
| DWFKAFYDKVAEKFKEAF (Synthetic recombinantly expressed peptide) [4F] | upregulated | inhibited | potent inhibitor | inhibited | decreased | decreased | markedly decreased | decreased | decreased | reduced | decreased | decreased | decreased | – | – | – |
| DWLKAFYDKFFEKFKEFF (Synthetic recombinantly expressed peptide) [6F] | – | – | – | – | – | – | – | – | – | – | – | – | – | 15.6±7.4 µg 6F per 200 mg small intestine | not in the plasma | found |
| DWLKAFYDKVFEKFKEFF (Synthetic recombinantly expressed peptide) [5F] | – | – | – | – | decreased | decreased | – | – | – | – | – | – | – | – | – | – |
